Numbers after ± are expanded uncertainties.
Assays:
[1] = Ring tensiometer
[2] = xn = mol fraction of the nth substance listed; settings: Ring tensiometer

CCCCn1cc[n+](C)c1.F[B-](F)(F)F [1-butyl-3-methylimidazolium tetrafluoroborate]
[1]
Settings	surface tension liquid-gas [mN/m]
298.15 K	44.6 ± 0.84
308.15 K	43.65 ± 0.83
318.15 K	42.95 ± 0.83
328.15 K	42.25 ± 0.82
338.15 K	41.55 ± 0.82

CCCCn1cc[n+](C)c1.F[B-](F)(F)F [1-butyl-3-methylimidazolium tetrafluoroborate] + O
surface tension liquid-gas [mN/m], [2]
Settings	x1 = 0.02	x1 = 0.04	x1 = 0.06	x1 = 0.08	x1 = 0.1	x1 = 0.2	x1 = 0.4	x1 = 0.6	x1 = 0.8	x1 = 1
298.15 K	49.07 ± 1.5	47.16 ± 0.84	47.05 ± 0.83	46.95 ± 0.83	46.8 ± 0.83	46.3 ± 0.83	45.9 ± 0.83	45.4 ± 0.83	45 ± 0.83	44.6 ± 0.84
308.15 K	48.15 ± 1.5	45.95 ± 0.83	45.85 ± 0.82	45.75 ± 0.82	45.65 ± 0.82	45.45 ± 0.82	44.95 ± 0.82	44.55 ± 0.82	44.35 ± 0.83	43.65 ± 0.83
318.15 K	47.35 ± 1.4	45.15 ± 0.82	45.05 ± 0.81	44.95 ± 0.81	44.85 ± 0.81	44.65 ± 0.81	44.15 ± 0.81	43.75 ± 0.82	43.55 ± 0.82	42.95 ± 0.83
328.15 K	46.55 ± 1.4	44.35 ± 0.82	44.25 ± 0.81	44.15 ± 0.81	44.05 ± 0.81	43.85 ± 0.81	43.35 ± 0.81	42.95 ± 0.81	42.75 ± 0.82	42.25 ± 0.82
338.15 K	45.75 ± 1.4	43.55 ± 0.81	43.45 ± 0.8	43.35 ± 0.8	43.25 ± 0.8	43.05 ± 0.8	42.55 ± 0.8	42.15 ± 0.81	41.95 ± 0.81	41.55 ± 0.82

CCn1cc[n+](C)c1.F[B-](F)(F)F [1-ethyl-3-methylimidazolium tetrafluoroborate]
[1]
Settings	surface tension liquid-gas [mN/m]
298.15 K	52.05 ± 1
308.15 K	51.65 ± 1
318.15 K	51.25 ± 1
328.15 K	50.85 ± 1
338.15 K	50.45 ± 0.99

CCn1cc[n+](C)c1.F[B-](F)(F)F [1-ethyl-3-methylimidazolium tetrafluoroborate] + O
surface tension liquid-gas [mN/m], [2]
Settings	x1 = 0.02	x1 = 0.04	x1 = 0.06	x1 = 0.08	x1 = 0.1	x1 = 0.2	x1 = 0.4	x1 = 0.6	x1 = 0.8	x1 = 1
298.15 K	60.27 ± 1.2	57.47 ± 0.93	56.49 ± 0.91	55.52 ± 0.9	54.98 ± 0.9	53.92 ± 0.89	53.61 ± 0.91	53.23 ± 0.94	52.73 ± 0.97	52.05 ± 1
308.15 K	59.07 ± 1.1	56.47 ± 0.92	55.69 ± 0.9	54.82 ± 0.89	54.38 ± 0.89	53.52 ± 0.89	53.21 ± 0.91	52.83 ± 0.93	52.33 ± 0.97	51.65 ± 1
318.15 K	57.87 ± 1.1	55.47 ± 0.91	54.89 ± 0.89	54.12 ± 0.89	53.78 ± 0.88	53.12 ± 0.89	52.81 ± 0.9	52.43 ± 0.93	51.93 ± 0.96	51.25 ± 1
328.15 K	56.67 ± 1.1	54.47 ± 0.9	54.09 ± 0.89	53.42 ± 0.88	53.18 ± 0.88	52.72 ± 0.88	52.41 ± 0.9	52.03 ± 0.93	51.53 ± 0.96	50.85 ± 1
338.15 K	55.47 ± 1.1	53.47 ± 0.89	53.29 ± 0.88	52.72 ± 0.88	52.58 ± 0.87	52.32 ± 0.88	52.01 ± 0.9	51.63 ± 0.92	51.13 ± 0.95	50.45 ± 0.99

CCCCCCn1cc[n+](C)c1.F[B-](F)(F)F [1-hexyl-3-methylimidazolium tetrafluoroborate]
[1]
Settings	surface tension liquid-gas [mN/m]
298.15 K	37.22 ± 0.78
308.15 K	36.62 ± 0.78
318.15 K	35.92 ± 0.77
328.15 K	35.22 ± 0.77
338.15 K	34.52 ± 0.76

CCCCCCn1cc[n+](C)c1.F[B-](F)(F)F [1-hexyl-3-methylimidazolium tetrafluoroborate] + O
surface tension liquid-gas [mN/m], [2]
Settings	x1 = 0.3	x1 = 0.4	x1 = 0.5	x1 = 0.6	x1 = 0.7	x1 = 0.8	x1 = 0.9	x1 = 1
298.15 K	38.1 ± 0.79	37.7 ± 0.77	37.54 ± 0.77	37.42 ± 0.77	37.33 ± 0.77	37.26 ± 0.78	37.23 ± 0.78	37.22 ± 0.78
308.15 K	37.26 ± 0.79	37.08 ± 0.76	36.84 ± 0.77	36.82 ± 0.77	36.73 ± 0.77	36.66 ± 0.77	36.63 ± 0.77	36.62 ± 0.78
318.15 K	36.56 ± 0.78	36.28 ± 0.76	36.34 ± 0.76	36.12 ± 0.76	36.03 ± 0.76	35.86 ± 0.77	35.93 ± 0.77	35.92 ± 0.77
328.15 K	35.96 ± 0.78	35.68 ± 0.76	35.64 ± 0.76	35.42 ± 0.76	35.33 ± 0.76	35.26 ± 0.76	35.23 ± 0.76	35.22 ± 0.77
338.15 K	35.26 ± 0.77	34.98 ± 0.75	34.84 ± 0.75	34.72 ± 0.75	34.63 ± 0.75	34.56 ± 0.76	34.53 ± 0.76	34.52 ± 0.76

O [water]
[1]
Settings	surface tension liquid-gas [mN/m]
298.15 K	71.8 ± 1
308.15 K	70.1 ± 1
318.15 K	68.4 ± 1
328.15 K	66.7 ± 0.99
338.15 K	65 ± 0.97

O [water] + CCCCCCn1cc[n+](C)c1.F[B-](F)(F)F
[2], x2 = 0
Settings	surface tension liquid-gas [mN/m]
298.15 K	71.8 ± 1
308.15 K	70.1 ± 1
318.15 K	68.4 ± 1
328.15 K	66.7 ± 0.99
338.15 K	65 ± 0.97

O [water] + CCCCn1cc[n+](C)c1.F[B-](F)(F)F
[2], x2 = 0
Settings	surface tension liquid-gas [mN/m]
298.15 K	71.8 ± 1
308.15 K	70.1 ± 1
318.15 K	68.4 ± 1
328.15 K	66.7 ± 0.99
338.15 K	65 ± 0.97

O [water] + CCn1cc[n+](C)c1.F[B-](F)(F)F
[2], x2 = 0
Settings	surface tension liquid-gas [mN/m]
298.15 K	71.8 ± 1
308.15 K	70.1 ± 1
318.15 K	68.4 ± 1
328.15 K	66.7 ± 0.99
338.15 K	65 ± 0.97

From the NIST ThermoML archive (doi:10.1016/j.tca.2019.01.018)
